Source: paper PMC5158193, “Molecular Characterization and Functional Analysis of a Novel Calcium-Dependent Protein Kinase 4 from Eimeria tenella” (PLoS ONE, 2016)

These compounds were tested against T1, rEtCDPK4 (Eimeria tenella, UniProt A0A165BP42) (assay: PepTag C1-peptide non-radioactive kinase assay, A570). Conditions: 1 mM ATP, 1.3 mM CaCl2, 10 mM MgCl2, phosphatidylserine, 47.5 μM PepTag C1-peptide, pH 7.4, 30 °C.
T1 construct: gene CDPK4; fragment, ORF bp 118-1777 (cDNA 303-1962); N-terminal 6xHis (pCold I), E. coli BL21; kinase domain and all six EF hands
T1 sequence (A0A165BP42 40-592): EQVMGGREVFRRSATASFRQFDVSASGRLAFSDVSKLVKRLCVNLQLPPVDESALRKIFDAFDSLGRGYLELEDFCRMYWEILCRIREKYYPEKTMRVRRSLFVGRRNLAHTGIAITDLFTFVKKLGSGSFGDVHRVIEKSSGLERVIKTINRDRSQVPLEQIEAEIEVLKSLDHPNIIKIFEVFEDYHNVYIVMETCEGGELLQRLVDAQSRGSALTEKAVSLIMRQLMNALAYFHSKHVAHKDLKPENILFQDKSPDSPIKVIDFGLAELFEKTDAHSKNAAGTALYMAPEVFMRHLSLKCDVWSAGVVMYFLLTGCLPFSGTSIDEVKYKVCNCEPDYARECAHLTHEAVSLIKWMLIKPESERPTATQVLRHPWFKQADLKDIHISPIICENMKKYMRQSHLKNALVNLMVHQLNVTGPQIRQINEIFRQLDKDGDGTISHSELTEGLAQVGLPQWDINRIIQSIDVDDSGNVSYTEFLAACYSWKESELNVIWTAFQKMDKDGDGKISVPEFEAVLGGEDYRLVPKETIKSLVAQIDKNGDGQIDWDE
Type: biochemical
For `O=S(=O)(NCCNC/C=C/c1ccc(Br)cc1)c1cccc2cnccc12` [H-89], the “kinase activity at 100 μM inhibitor” value was “W-7, H-7, H-89, staurosporine, Ro-31-8220 and myristoylated peptide significantly decreased enzyme activity”.
With `CN[C@@H]1C[C@H]2O[C@@](C)([C@@H]1OC)n1c3ccccc3c3c4c(c5c6ccccc6n2c5c31)C(=O)NC4` [staurosporine] the “kinase activity at 100 μM inhibitor” value was “W-7, H-7, H-89, staurosporine, Ro-31-8220 and myristoylated peptide significantly decreased enzyme activity”.
`CC1CNCCN1S(=O)(=O)c1cccc2cnccc12` (centres unmarked) [H-7] was tested, and the “kinase activity at 100 μM inhibitor” value was “W-7, H-7, H-89, staurosporine, Ro-31-8220 and myristoylated peptide significantly decreased enzyme activity”.
For `Cn1cc(C2=C(c3cn(CCCSC(=N)N)c4ccccc34)C(=O)NC2=O)c2ccccc21` [Ro-31-8220], the “kinase activity at 100 μM inhibitor” value was “W-7, H-7, H-89, staurosporine, Ro-31-8220 and myristoylated peptide significantly decreased enzyme activity”.
In the case of `NCCCCCCNS(=O)(=O)c1cccc2c(Cl)cccc12` [W-7], the “kinase activity at 100 μM inhibitor” value is reported as “W-7, H-7, H-89, staurosporine, Ro-31-8220 and myristoylated peptide significantly decreased enzyme activity”.
